Tests used:
[1] = In vitro inhibition of ADP-induced platelet aggregation in human platelet rich plasma; type: functional, cell-free
Canis familiaris = species on record: Canis familiaris; test: In vitro inhibition of ADP-induced platelet aggregation in dog platelet rich plasma; type: functional; conditions: Canis lupus familiaris
Rattus norvegicus = species on record: Rattus norvegicus; test: In vitro inhibition of ADP-induced platelet aggregation in rat platelet rich plasma; type: functional
[2] = Maximum (peak) plasma drug concentration after peroral administration at a dose of 3.2 mg/kg in rat (n=3); type: ADME, organism-based; set-up: dose 3.2 mg/kg, route oral; conditions: po
[3] = Maximum (peak) plasma drug concentration after peroral administration at a dose of 0.032 mg/kg in dog; type: ADME, organism-based, Canis lupus familiaris; set-up: dose 0.032 mg/kg, route oral; conditions: po
[4] = In vitro inhibition of ADP-induced platelet aggregation in monkey platelet rich plasma; type: functional; conditions: Cercopithecidae
[5] = Percent oral bioavailability of the drug after intravenous administration at 0.032 mg/kg in dog; type: ADME, organism-based, Canis lupus familiaris; conditions: in vivo, read-out: Ba
[6] = Total body clearance of drug from the plasma after intravenous administration at 0.032 mg/kg in dog; type: ADME, organism-based, Canis lupus familiaris; set-up: dose 0.032 mg/kg, route intravenous; conditions: read-out: CLtot
[7] = Area under plasma concentration-time curve after peroral administration at a dose of 3.2 mg/kg in rat (n=3); type: ADME, organism-based; set-up: dose 3.2 mg/kg, route oral; conditions: po
[8] = Elimination half-life after intravenous administration at a dose of 0.032 mg/kg in dog; type: ADME, organism-based, Canis lupus familiaris; set-up: dose 0.032 mg/kg, route intravenous; conditions: in vivo
[9] = Elimination half-life after intravenous administration at a dose of 3.2 mg/kg in rat (n=3); type: ADME, organism-based; set-up: dose 3.2 mg/kg, route intravenous; conditions: in vivo
[10] = Total body clearance of drug from the plasma after intravenous administration at 3.2 mg/kg in rat; type: ADME, organism-based; set-up: dose 3.2 mg/kg, route intravenous; conditions: read-out: CLtot
[11] = Percent oral bioavailability after intravenous administration at 3.2 mg/kg in rat; type: ADME, organism-based; conditions: in vivo, read-out: Ba
[12] = Area Under Plasma concentration-time curve after peroral administration at a dose of 0.032 mg/kg in dog; type: ADME, organism-based, Canis lupus familiaris; set-up: dose 0.032 mg/kg, route oral; conditions: po

Compound: O=C(O)COc1cccc(C[C@@H]2CCCC=C2c2nc(-c3ccccc3)c(-c3ccccc3)o2)c1
- IC50 [1]: 60 nM
- IC50 (Canis familiaris): 1300 nM
- IC50 (Rattus norvegicus): 1200 nM

Compound: O=C(O)COc1cccc2c1CCC[C@@H]2OCc1nc(-c2ccccc2)c(-c2ccccc2)o1
- IC50 [1]: 1400 nM

Compound: O=C([O-])COc1cccc2c1CCC[C@H]2N1CCC[C@@H]1c1nc(-c2ccccc2)c(-c2ccccc2)o1.[Na+]
- Cmax [2]: 187 ng/mL
- Cmax [3]: 61.2 ng/mL
- IC50 [4]: 59 nM
- IC50 [1]: 19 nM
- bioavailability [5]: 66%
- IC50 (Canis familiaris): 780 nM
- clearance [6]: 1 mL/min/kg
- AUC [7]: 172 ng·h/mL
- half-life [8]: 2.25 h
- IC50 (Rattus norvegicus): 630 nM
- half-life [9]: 0.21 h
- clearance [10]: 89.2 mL/min/kg
- bioavailability [11]: 31%
- AUC [12]: 327 ng·h/mL

Compound: O=C(O)COc1cccc2c1CCC[C@@H]2N1CCC[C@@H]1c1nc(-c2ccccc2)c(-c2ccccc2)o1
- IC50 [1]: 870 nM
- IC50 (Rattus norvegicus): > 10000 nM

Compound: O=C(O)COc1cccc2c1CCC[C@H]2NCc1nc(-c2ccccc2)c(-c2ccccc2)o1
- IC50 [1]: 190 nM
- IC50 (Rattus norvegicus): 5000 nM

Compound: O=C(O)COc1cccc2c1CCCC2CCc1nc(-c2ccccc2)c(-c2ccccc2)o1 (configuration not stated)
- IC50 [1]: 1000 nM
- IC50 (Rattus norvegicus): > 10000 nM

Compound: O=C(O)COc1cccc2c1CCC[C@H]2OCc1nc(-c2ccccc2)c(-c2ccccc2)o1
- IC50 [1]: 140 nM

Compound: O=C(O)COc1cccc2c1CCC[C@@H]2NCc1nc(-c2ccccc2)c(-c2ccccc2)o1
- IC50 [1]: 1500 nM

Compound: O=C(O)COc1cccc2c1CCC[C@@H]2N1CCC[C@H]1c1nc(-c2ccccc2)c(-c2ccccc2)o1
- IC50 [1]: 63 nM
- IC50 (Rattus norvegicus): 2200 nM

Compound: O=C(O)COc1cccc2c1CCC[C@H]2N1CCC[C@H]1c1nc(-c2ccccc2)c(-c2ccccc2)o1
- IC50 [1]: 640 nM
- IC50 (Rattus norvegicus): > 10000 nM

Compound: CCC/C(CC1CCc2c(cccc2OCC(=O)O)C1)=N\OC(c1ccccc1)c1ccccc1 (configuration not stated) [AP-227]
- IC50 [1]: 150 nM

Compound: CC#CCC(C)[C@H](O)/C=C/[C@@H]1[C@H]2C/C(=C/CCCC(=O)O)C[C@H]2C[C@H]1O (some centres not stated) [ILOPROST]
- IC50 [1]: 2.5 nM
